Data as given in patent publication US20250171498A1, “ANTIBIOTIC COMPOUNDS, FORMULATIONS AND METHODS OF USE” (UNIVERSITEIT LEIDEN, priority 2022, published 2025).
≈ marks a conversion by molar mass, not a printed value. Where a SMILES comes first, the peptide text is derived from it. Bridges are numbered along the chain shown (N, C = ends). [ ]: non-standard residue; d: D form. The star is where a group is joined. S(2-cyclohexylethyl) = C1CCC(CCS*)CC1; S(3-Methylbutyl) = CC(C)CCS*; dDab = NCC[C@@H](N)C(=O)O; Dab = NCC[C@H](N)C(=O)O

Columns and labels:
Type in all cases: cell-based
[1] = tested on: A. Baumanni (ATCC 19606); conditions: ATCC 19606
[2] = tested on: E. Coli (ATCC 25922); conditions: ATCC 25922
[3] = tested on: K. Pneumoniae (ATCC 13883); conditions: ATCC 13883
[4] = tested on: P. Aeruginosa (ATCC 27853); conditions: ATCC 27853
[5] = tested on: renal Proximal Tubular Epithelial Cells (PTECs); assay: Toxicity on renal Proximal Tubular Epithelial Cells

| Compound | MIC A. Baumanni (ATCC 19606) [1] [µg/mL] | MIC E. Coli (ATCC 25922) [2] [µg/mL] | MIC K. Pneumoniae (ATCC 13883) [3] [µg/mL] | MIC P. Aeruginosa (ATCC 27853) [4] [µg/mL] | PTEC Toxicity (relative to polymyxin B) [5] |
| --- | --- | --- | --- | --- | --- |
| CC(C)C[C@@H]1NC(=O)[C@@H](Cc2ccccc2)NC(=O)[C@H](CCN)NC(=O)[C@@H](NC(=O)[C@@H](CCN)NC(=O)[C@@H](NC(=O)[C@H](N)CSSCCC2CCCCC2)[C@@H](C)O)CCNC(=O)[C@H]([C@@H](C)O)NC(=O)[C@H](CCN)NC(=O)[C@H](CCN)NC1=O (H-[dC](S(2-cyclohexylethyl))T[dDab][Dab][Dab][dF]L[Dab][Dab]T; lactam 4-C) | 0.5 (≈ 0.414 µM) | 2 (≈ 1.65 µM) | 1 (≈ 0.827 µM) | 2 (≈ 1.65 µM) | 4.8 |
| CC(C)CCSSC[C@@H](N)C(=O)N[C@H](C(=O)NCC(=O)N[C@H]1CCNC(=O)[C@H]([C@@H](C)O)NC(=O)[C@H](CCN)NC(=O)[C@H](CCN)NC(=O)[C@H](CC(C)C)NC(=O)[C@@H](Cc2ccccc2)NC(=O)[C@H](CCN)NC1=O)[C@@H](C)O (H-[dC](S(3-Methylbutyl))TG[Dab][Dab][dF]L[Dab][Dab]T; lactam 4-C) | 0.5 (≈ 0.444 µM) | 2 (≈ 1.78 µM) | 0.5 (≈ 0.444 µM) | 4 (≈ 3.55 µM) | 26.8 |
| CC(C)C[C@@H]1NC(=O)[C@@H](Cc2ccccc2)NC(=O)[C@H](CCN)NC(=O)[C@@H](NC(=O)CNC(=O)[C@@H](NC(=O)[C@H](N)CSSCCC2CCCCC2)[C@@H](C)O)CCNC(=O)[C@H]([C@@H](C)O)NC(=O)[C@H](CCN)NC(=O)[C@H](CCN)NC1=O (H-[dC](S(2-cyclohexylethyl))TG[Dab][Dab][dF]L[Dab][Dab]T; lactam 4-C) | 0.5 (≈ 0.429 µM) | 2 (≈ 1.72 µM) | 1 (≈ 0.858 µM) | 2 (≈ 1.72 µM) | 7.4 |
